Source: paper PMC4315428 (PLoS ONE, 2015)

Experiments:
L-type Ca^2+ channel = format: cell-based, rat (Sprague-Dawley); conditions: 10 μM
T-type Ca^2+ channel = format: cell-based, rat (Sprague-Dawley); conditions: 10 μM
[1] = test system: tetrodotoxin-sensitive (TTX-S) sodium channels; conditions: read-out: IC50 value, TTX-S voltage-gated sodium channels; cited from earlier work

In the case of Hainantoxin-IV [HNTX-IV], the “effect on Ca^2+ currents (L-type)” value (L-type Ca^2+ channel) is listed as “neither native HNTX-IV (Fig. 8A, 8B) nor rHNTX-IV (Fig. 8C, 8D) could cause obvious changes”, the “effect on Ca^2+ currents (T-type)” value (T-type Ca^2+ channel) is listed as “neither native HNTX-IV (Fig. 8A, 8B) nor rHNTX-IV (Fig. 8C, 8D) could cause obvious changes” and the IC50 [1] is listed as 34 nM.
